Results: patent publication US20040224958A1, “Pyridopyrimidinone derivatives for treatment of neurodegenerative disease” (priority 2000, published 2004)
Read-outs that look alike come from different tables or passages of the source.

How the values were obtained:
Cdk5/p25 = Cdk5/p25 (Homo sapiens, UniProt Q00535); assay: Cyclin-Dependent Kinase 5 High Throughput Screening (cdk5-HTS) Assay; type: biochemical; conditions: high throughput screen
Procedure: Cyclin-Dependent Kinase 5 High Throughput Screening (cdk5-HTS) Assay
Enzyme assays for IC50 determinations were performed in 96-Pierce Reacti-Bind™ White Opaque Glutatione Coated Plates (Cat. No. 15240B).
The total volume was 0.100 mL containing a final concentration of 50 mM TRIS (tris[hydroxymethyl]aminomethane) at pH 7.4, 50 mM NaCl, 10 mM MgCl2, 5 mM dithiothreitol, 20 μM ATP containing 16 μCi/mL of Redivue[y33P]ATP (Amersham Pharmacia Biotech Cat. No. AH9968), 1.0 μg/mL Cdk5/p25, 20 μg/mL GST-RbCOOH, and appropriate dilutions of a compound of the present invention. The reaction was started by adding[^33P]ATP, and the plate was shaken for 30 seconds, then incubated at room temperature for 30 minutes. The reaction was terminated by addition of 0.05 mL of 120 mM EDTA. The plate was kept at room temperature for 45 minutes to allow substrate to bind to the walls of the plate. The wells were then washed three times with 0.2 mL of 1×PBS. Once thoroughly dry, 0.140 mL of MicroScint™2O (Packard Bioscience Cat. No. 87-9081) cocktail was added to all wells. The incorporation of ^33P was determined with a beta plate counter (Packard Topcount).

cdk2/cyclinE = cdk2/cyclinE (Homo sapiens, UniProt P24941); assay: Cyclin-Dependent Kinase Assay cdk2/cyclinE
cdk4/D = cdk4/D (Homo sapiens, UniProt P11802); assay: Cyclin-Dependent Kinase 4 (cdk4) Assay; type: biochemical; conditions: read-out: cdk4/D IC50
Chain of cdk4/D (P11802 whole entry): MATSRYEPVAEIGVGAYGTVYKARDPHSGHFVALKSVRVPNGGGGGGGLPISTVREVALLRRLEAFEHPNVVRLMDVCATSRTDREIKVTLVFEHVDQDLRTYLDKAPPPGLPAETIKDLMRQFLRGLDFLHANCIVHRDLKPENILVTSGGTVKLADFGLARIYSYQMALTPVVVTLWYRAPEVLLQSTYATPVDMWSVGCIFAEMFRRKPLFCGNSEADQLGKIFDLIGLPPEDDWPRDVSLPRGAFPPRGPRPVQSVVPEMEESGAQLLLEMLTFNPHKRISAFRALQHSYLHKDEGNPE
Chain of cdk4/D (P24385 whole entry, further chain): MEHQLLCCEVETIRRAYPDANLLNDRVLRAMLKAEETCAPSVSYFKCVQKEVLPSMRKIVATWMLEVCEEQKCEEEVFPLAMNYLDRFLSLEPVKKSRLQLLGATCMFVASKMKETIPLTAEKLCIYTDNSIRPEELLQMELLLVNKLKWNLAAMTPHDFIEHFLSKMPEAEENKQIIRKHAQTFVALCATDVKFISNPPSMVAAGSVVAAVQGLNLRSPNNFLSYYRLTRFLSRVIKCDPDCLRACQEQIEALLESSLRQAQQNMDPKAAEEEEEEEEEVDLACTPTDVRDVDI
Procedure: A typical assay, for instance, measures inhibitory activity against the cyclin D dependent kinase 4 enzyme (cdk4/D). […] The cdk4 assay was carried out as follows.
Cyclin-Dependent Kinase 4 (cdk4) Assay
All components except the ATP were added to the wells, and the plate was placed on a plate mixer for 2 minutes. The reaction was started by adding [^32P]ATP and the plate was incubated at 25° C. for 15 minutes. The reaction was terminated by addition of 0.1 mL of 20% trichloroacetic acid (TCA). The plate was kept at 4° C. for at least 1 hour to allow the substrate to precipitate. The wells were then washed five times with 0.2 mL of 10% TCA and ^32P incorporation was determined with a beta plate counter (Wallac Inc., Gaithersburg, Md.).

cdc2/cyclinB = cdc2/cyclinB (Homo sapiens, UniProt P06493); assay: Cyclin-Dependent Kinase Assay cdc2/cyclinB
Chain of cdc2/cyclinB (P06493 whole entry): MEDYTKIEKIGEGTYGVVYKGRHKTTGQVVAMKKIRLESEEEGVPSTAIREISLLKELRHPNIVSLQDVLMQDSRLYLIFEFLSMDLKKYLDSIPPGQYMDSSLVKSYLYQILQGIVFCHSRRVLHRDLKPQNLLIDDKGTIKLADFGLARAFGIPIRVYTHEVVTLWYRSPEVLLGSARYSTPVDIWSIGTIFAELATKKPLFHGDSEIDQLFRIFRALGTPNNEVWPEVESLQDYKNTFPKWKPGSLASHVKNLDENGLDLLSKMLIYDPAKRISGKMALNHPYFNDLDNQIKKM
Chain of cdc2/cyclinB (P14635 whole entry, further chain): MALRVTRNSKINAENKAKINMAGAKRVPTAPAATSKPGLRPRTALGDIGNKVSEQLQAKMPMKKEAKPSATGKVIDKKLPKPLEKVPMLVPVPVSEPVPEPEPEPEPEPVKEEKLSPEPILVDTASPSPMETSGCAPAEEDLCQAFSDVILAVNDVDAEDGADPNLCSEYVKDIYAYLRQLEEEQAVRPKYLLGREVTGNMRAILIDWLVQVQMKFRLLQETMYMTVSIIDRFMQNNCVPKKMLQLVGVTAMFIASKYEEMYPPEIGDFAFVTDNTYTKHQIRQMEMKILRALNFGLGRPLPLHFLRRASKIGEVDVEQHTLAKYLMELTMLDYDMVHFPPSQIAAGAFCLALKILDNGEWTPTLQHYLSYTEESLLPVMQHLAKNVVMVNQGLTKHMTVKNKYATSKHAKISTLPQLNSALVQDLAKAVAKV

cdk2/cyclinA = cdk2/cyclinA (Homo sapiens, UniProt P24941); assay: Cyclin-Dependent Kinase Assay cdk2/cyclinA
Procedure: Cyclin-Dependent Kinase Assays (cdk2/cyclinE, cdk2/cyclinA, cdc2/cyclinB)
All components except the ATP were added to the wells, and the plate was placed on a plate mixer for 2 minutes. The reaction was begun by addition of [^32P]ATP, and the plate was incubated at 25° C. for 15 minutes. The reaction was terminated by addition of 0.1 mL of 20% TCA. The plate was kept at 4° C. for at least 1 hour to allow the substrate to precipitate. The wells were then washed five times with 0.2 mL of 10% TCA and ^32p incorporation determined with a beta plate counter (Wallac Inc., Gaithersburg, Md.).

Row | Molecule | IC50 (Cdk5/p25) | IC50 (cdk2/cyclinE; cdk2/E IC50) | IC50 (cdk4/D) | IC50 (cdc2/cyclinB) | IC50 (cdk2/cyclinA; cdk2/A IC50) | IC50 (cdk2/cyclinE; read-out: cdk2/E IC50) | IC50 (cdc2/cyclinB; read-out: cdk1/B IC50) | IC50 (cdk2/cyclinA; read-out: cdk2/A IC50)
1 | Cc1cc(Nc2ncc3ccc(=O)n(C(C)C)c3n2)ccc1Br [Example 442, 2-(4-Bromo-3-methyl-phenylamino)-8-isopropyl-8H-pyrido[2,3-d]pyrimidin-7-one] | 440 nM | 3600 nM | 3600 nM | 1900 nM | 1700 nM |  |  | 
2 | CCC(CC)n1c(=O)ccc2cnc(Nc3ccc(Cl)c(C)c3)nc21 [Example 500, 2-(4-Chloro-3-methyl-phenylamino)-8-(1-ethyl-propyl)-8H-pyrido[2,3-d]pyrimidin-7-one] | 16 nM | 74 nM | 98 nM | 110 nM | 340 nM |  |  | 
3 | Cc1cc(Nc2ncc3ccc(=O)n(C4CCCC4)c3n2)ccc1Br [Example 562, 2-(4-Bromo-3-methyl-phenylamino)-8-cyclopentyl-8H-pyrido[2,3-d]pyrimidin-7-one] | 50 nM | 140 nM | 160 nM | 47 nM | 56 nM |  |  | 
4 | CC(=O)Nc1cc(Nc2ncc3ccc(=O)n(C4CCCC4)c3n2)ccc1C [Example 558, N-[5-(8-Cyclopentyl-7-oxo-7,8-dihydro-pyrido[2,3-d]pyrimidin-2-ylamino)-2-methyl-phenyl]-acetamide] | 220 nM | 280 nM | 30 nM | 510 nM | 340 nM |  |  | 
5 | CCn1c(=O)ccc2cnc(Nc3ccc(C#N)cc3)nc21 [Example 304, 4-(8-Ethyl-7-oxo-7,8-dihydro-pyrido[2,3-d]pyrimidin-2-ylamino)-benzonitrile] | 980 nM | 1600 nM | 2900 nM | 2200 nM | 1500 nM |  |  | 
6 | 8-Cyclopropylmethyl-2-(1H-indazol-6-ylamino)-8H-pyrido[2,3-d]pyrimidin-7-one [Example 583] | 105 nM |  | 1300 nM |  |  | 200 nM | 355 nM | 260 nM
7 | CC(C)n1c(=O)ccc2cnc(Nc3ccc(C(F)(F)F)cc3)nc21 [Example 443, 8-Isopropyl-2-(4-trifluoromethyl-phenylamino)-8H-pyrido[2,3-d]pyrimidin-7-one] | 71 nM | 170 nM | 320 nM | 520 nM | 200 nM |  |  | 
8 | COc1cc(Nc2ncc3ccc(=O)n(CC4CC4)c3n2)cc(OC)c1OC [Example 569, 8-Cyclopropylmethyl-2-(3,4,5-trimethoxy-phenylamino)-8H-pyrido[2,3-d]pyrimidin-7-one] | 310 nM | 260 nM | 3500 nM | 560 nM | 1600 nM |  |  | 
9 | CCC(CC)n1c(=O)ccc2cnc(Nc3ccc4[nH]c(=O)[nH]c4c3)nc21 [Example 493, 8-(1-Ethyl-propyl)-2-(2-oxo-2,3-dihydro-1H-benzimidazol-5-ylamino)-8H-pyrido[2,3-d]pyrimidin-7-one] | 8.7 nM | 12 nM | 25 nM | 14.5 nM | 50.5 nM |  |  | 
10 | CCC(CC)n1c(=O)ccc2cnc(Nc3ccc(O)cc3F)nc21 [Example 495, 8-(1-Ethyl-propyl)-2-(2-fluoro-4-hydroxy-phenylamino)-8H-pyrido[2,3-d]pyrimidin-7-one] | 108 nM | 147 nM | 570 nM | 215 nM | 650 nM |  |  | 
11 | CCC(C)n1c(=O)ccc2cnc(Nc3ccc(OC)c(F)c3)nc21 (stereo not drawn) [Example 462, 8-sec-Butyl-2-(3-fluoro-4-methoxy-phenylamino)-8H-pyrido[2,3-d]pyrimidin-7-one] | 10 nM | 60 nM |  | 88 nM | 78 nM |  |  | 
12 | CCn1c(=O)ccc2cnc(Nc3cc(F)cc(F)c3)nc21 [Example 303, 2-(3,5-Difluoro-phenylamino)-8-ethyl-8H-pyrido[2,3-d]pyrimidin-7-one] | 470 nM | 840 nM |  | 930 nM | 1200 nM |  |  | 
13 | CCn1c(=O)ccc2cnc(Nc3cccc(C(F)(F)F)c3)nc21 [Example 305, 8-Ethyl-2-(3-trifluoromethyl-phenylamino)-8H-pyrido[2,3-d]pyrimidin-7-one] | 240 nM | 670 nM |  | 550 nM | 1100 nM |  |  | 
14 | CCC(C)n1c(=O)ccc2cnc(Nc3cccc(C(F)(F)F)c3)nc21 (stereo not drawn) [Example 477, 8-sec-Butyl-2-(3-trifluoromethyl-phenylamino)-8H-pyrido[2,3-d]pyrimidin-7-one] | 38 nM | 260 nM |  | 170 nM | 370 nM |  |  | 
15 | O=c1ccc2cnc(Nc3ccc(Br)c(C(F)(F)F)c3)nc2n1CC1CC1 [Example 589, 2-(4-Bromo-3-trifluoromethyl-phenylamino)-8-cyclopropylmethyl-8H-pyrido[2,3-d]pyrimidin-7-one] | 570 nM | 190 nM |  | 1300 nM | 710 nM |  |  | 
16 | CCCn1c(=O)ccc2cnc(Nc3cc(F)cc(F)c3)nc21 [Example 349, 2-(3,5-Difluoro-phenylamino)-8-propyl-8H-pyrido[2,3-d]pyrimidin-7-one] | 200 nM | 530 nM |  | 880 nM | 1100 nM |  |  | 
17 | CCCn1c(=O)ccc2cnc(Nc3cccc(NC(C)=O)c3)nc21 [Example 353, N-[3-(7-Oxo-8-propyl-7,8-dihydro-pyrido[2,3-d]pyrimidin-2-ylamino)-phenyl]-acetamide] | 230 nM | 320 nM |  | 710 nM | 460 nM |  |  | 
18 | O=c1ccc2cnc(Nc3cc(Cl)c(O)c(Cl)c3)nc2n1CC(F)(F)F [Example 598, 2-(3,5-Dichloro-4-hydroxy-phenylamino)-8-(2,2,2-trifluoro-ethyl)-8H-pyrido[2,3-d]pyrimidin-7-one] | 525 nM | 523 nM |  | 455 nM | 970 nM |  |  | 
19 | Cc1ccc(Nc2ncc3ccc(=O)n(C(C)C)c3n2)cc1NS(C)(=O)=O [Example 439, N-[5-(8-Isopropyl-7-oxo-7,8-dihydro-pyrido[2,3-d]pyrimidin-2-ylamino)-2-methyl-phenyl]-methanesulfonamide] | 120 nM |  | 310 nM | 400 nM | 630 nM |  |  | 
20 | CCCn1c(=O)ccc2cnc(Nc3ccc(O)c(CN4CCOCC4)c3)nc21 [Example 355, 2-(4-Hydroxy-3-morpholin-4-ylmethyl-phenylamino)-8-propyl-8H-pyrido[2,3-d]pyrimidin-7-one] | 300 nM | 680 nM |  | 500 nM | 1100 nM |  |  | 
21 | CCCCn1c(=O)ccc2cnc(Nc3c(F)cc(F)cc3F)nc21 [Example 366, 8-Butyl-2-(2,4,6-trifluoro-phenylamino)-8H-pyrido[2,3-d]pyrimidin-7-one] | 699 nM | 255 nM |  | 1320 nM | 882 nM |  |  | 
22 | CCCn1c(=O)ccc2cnc(Nc3ccc(Cl)c(C(F)(F)F)c3)nc21 [Example 312, 2-(4-Chloro-3-trifluoromethyl-phenylamino)-8-propyl-8H-pyrido[2,3-d]pyrimidin-7-one] | 112 nM |  |  |  |  | 330 nM | 268 nM | 2670 nM
23 | CCC(CC)n1c(=O)ccc2cnc(Nc3cc(OC)c(OC)c(OC)c3)nc21 [Example 501, 8-(1-Ethyl-propyl)-2-(3,4,5-trimethoxy-phenylamino)-8H-pyrido[2,3-d]pyrimidin-7-one] | 81 nM | 240 nM |  | 280 nM | 760 nM |  |  | 
24 | CC(C)n1c(=O)ccc2cnc(Nc3ccc(C#N)c(C#N)c3)nc21 [Example 423, 4-(8-Isopropyl-7-oxo-7,8-dihydro-pyrido[2,3-d]pyrimidin-2-ylamino)-phthalonitrile] | 160 nM | 1100 nM |  | 1800 nM | 2600 nM |  |  | 
25 | CCCn1c(=O)ccc2cnc(Nc3ccc(F)c(F)c3)nc21 [Example 343, 2-(3,4-Difluoro-phenylamino)-8-propyl-8H-pyrido[2,3-d]pyrimidin-7-one] | 110 nM | 120 nM |  | 280 nM | 290 nM |  |  | 
26 | CCCCn1c(=O)ccc2cnc(Nc3cc(OC)c(OC)c(OC)c3)nc21 [Example 389, 8-Butyl-2-(3,4,5-trimethoxy-phenylamino)-8H-pyrido[2,3-d]pyrimidin-7-one] | 200 nM | 320 nM |  | 450 nM | 870 nM |  |  | 
